{"source": "patent US8859463B2", "about": "“Method for controlling noxious organisms” (Sumitomo Chemical Company, Limited, priority 2009, dated 2014)", "type_in_all_cases": "in vivo", "key": {"[1]": {"system": "Aulacorthum solani", "test": "Insecticidal effect (protective value), soybean pot test, Example 2", "conditions": "thiamethoxam none; flumioxazin 50 g/ha; day 6 after release", "method": "The evaluation of the insecticidal effect was performed by determining the life and death of the insects at the time of the investigation and calculating the protective value according to the following equation; Protective Value (%)=100×(1−T/C) wherein the symbols have the following meanings;\nC: The number of insects at the time of observation in an untreated section: and\nT: The number of insects at the time of observation in a treated section.\nThereafter, the test pot was placed in a greenhouse."}, "[2]": {"system": "soybean", "test": "Phytotoxicity to soybean, Example 6", "conditions": "clothianidin none; flumioxazin 25 g/ha; day 11 after sowing", "description": "A soil was packed in a 1/5000a Wagner pot. The above soybean seeds were sown in the Wagner pot at a rate of two seeds per pot, and the seeds of Ipomoea hederacea were sown in the pot at a rate of three seeds per pot.\nOn day 11 after sowing of the seeds of soybean and Ipomoea hederacea, the herbicidal effect and phytotoxicity were examined."}, "[3]": {"system": "Ipomoea hederacea", "test": "Herbicidal activity, corn pot test, Example 16", "conditions": "azole seed treatment none, flumioxazin 50 g/ha, twelve days after sowing", "method": "In a glass container measuring 60 mm in inner diameter and 20 mm in height, 8 μl of a prothioconazole emulsifiable concentrate (emulsifiable concentrate containing 25% prothioconazole, manufactured by Bayer Crop Science Inc. under the trade name of Proline) and 20 corn seeds were placed. The prothioconazole emulsifiable concentrate was adhered to the corn seeds by shaking this plastic cup by hand. In the same manner, 8 μl of a difenoconazole emulsifiable concentrate (emulsifiable concentrate containing 25% difenoconazole, manufactured by Syngenta under the trade name of Score) was adhered to 20 corn seeds. In the same manner, 50 mg of a tebuconazole suspension (suspension containing 20% tebuconazole, manufactured by Hokko Chemical Industry under the trade name of ONLY ONE Flowable) was adhered to 20 corn seeds.\nA plastic pot measuring 194 mm in inner diameter and 176 mm in height was filled with the soil. In this pot, 3 corn seeds were sown per 1 pot and 10 seeds of Ipomoea hederacea were sown per 1 pot. […]"}, "[4]": {"system": "Digitaria ciliaris", "test": "Herbicidal activity, soybean pot test, Example 75", "conditions": "metalaxyl compound none, flumioxazin 50 g/ha, twelve days after sowing", "method": "(§1) In a glass container measuring 60 mm in inner diameter and 20 mm in height, 12 mg of a metalaxyl emulsifiable concentrate (emulsifiable concentrate containing 25% metalaxyl, manufactured by Syngenta under the trade name of Subdue) and 20 soybean seeds were placed. After capping this glass container, the metalaxyl emulsifiable concentrate was adhered to the soybean seeds by shaking the glass container by hand. In the same manner, 47 mg of the metalaxyl emulsifiable concentrate was adhered to the soybean seeds. In the same manner, 9 mg of a metalaxyl-M emulsifiable concentrate (emulsifiable concentrate containing 33.3% metalaxyl-M manufactured by Syngeta under the trade name of Apron XL) was adhered to the soybean seeds. In the same manner, 40 mg of the metalaxyl-M emulsifiable concentrate was adhered to the soybean seeds.\n(§2) A plastic pot measuring 194 mm in inner diameter and 176 mm in height was filled with the soil. In this pot, 2 soybean seeds were sown per 1 pot, 7 seeds of Ipomoea hederacea were sown per 1 pot, and 10 seeds of Digitaria ciliaris were sown per 1 pot. […]"}, "[5]": {"system": "Ipomoea hederacea", "test": "Herbicidal activity, soybean pot test, Example 75", "conditions": "metalaxyl compound none, flumioxazin 50 g/ha, twelve days after sowing", "method": "as §1, §2"}}}
{"smiles": "C#CCN1C(=O)COc2cc(F)c(N3C(=O)C4=C(CCCC4)C3=O)cc21", "note": "[Flumioxazin, flumioxazin]", "values": [{"measurement": "Protective Value", "setting": "[1]", "value": 0, "unit": "%"}, {"measurement": "Phytotoxicity to Soybean", "setting": "[2]", "value": "No harm"}, {"measurement": "Herbicidal activity on Ipomoea hederacea", "setting": "[3]", "value": 88}, {"measurement": "Herbicidal activity Digitaria ciliaris", "setting": "[4]", "value": 75}, {"measurement": "Herbicidal activity Ipomoea hederacea", "setting": "[5]", "value": 55}]}
